Data taken from patent US10765114B2, “4-amino-6-(pyridyl and 2-substitutedphenyl)-picolinates and 6-amino-2-(pyridyl and 2-substitutedphenyl)-pyrimidine-4-carboxylates and their use as herbicides” (Dow AgroSciences LLC, priority 2013, dated 2020).
Where two headings read alike, the source gives them in different places.

What was measured:
[1] = system: Key Broadleaf Weed and Crop Species; test: Post-Emergent Test II (Table 5); assay type: in vivo; conditions: post-emergence, 336 h; for pest or weed control at 70 g/ha: application rate 70 (kg ai/ha; footnote: g ai/ha); for pest or weed control at 140 g/ha: application rate 140 (kg ai/ha; footnote: g ai/ha)
Method in brief: (§1)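 Plants grown in a greenhouse (~15 h photoperiod, 23-29° C day) to first or second true leaf stage were sprayed post-emergence at 187 L/ha with compound in acetone/DMSO-based aqueous spray containing crop oil concentrate and surfactant, applied at a high rate plus ½× to 1/16× serial rates. Injury was scored visually 14 days later, 0-100% versus untreated plants.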

[2] = system: Key Grass and Sedge Weeds as well as Grass Crops; test: Post-Emergent Test II (Table 6); assay type: in vivo; conditions: post-emergence, 336 h, 14 days after application; for pest or weed control at 70 g/ha: 70 g ai/ha; for pest or weed control at 140 g/ha: 140 g ai/ha
Method in brief: as §1

[3] = Abutilon theophrasti, ABUTH: velvetleaf (Abutilon theophrasti), read-out: Visual Growth Reduction (%) 14 Days After Application ABUTH
[4] = Amaranthus retroflexus, AMARE: redroot pigweed (Amaranthus retroflexus), read-out: Visual Growth Reduction (%) 14 Days After Application AMARE
[5] = Brassica napus, BRSSS: oilseed rape, canola (Brassica napus), read-out: Visual Growth Reduction (%) 14 Days After Application BRSSS
[6] = Chenopodium album, CHEAL: lambsquarters (Chenopodium album), read-out: Visual Growth Reduction (%) 14 Days After Application CHEAL
[7] = Euphorbia heterophylla, EPHHL: wild poinsettia (Euphorbia heterophylla), read-out: Visual Growth Reduction (%) 14 Days After Application EPHHL
[8] = Helianthus annuus, HELAN: sunflower (Helianthus annuus), read-out: Visual Growth Reduction (%) 14 Days After Application HELAN
[9] = Viola tricolor, VIOTR: wild pansy (Viola tricolor), read-out: Visual Growth Reduction (%) 14 Days After Application VIOTR
[10] = DIGSA: crabgrass (Digitaria sanguinalis), read-out: Visual Growth Reduction (%) 14 Days After Application DIGSA
[11] = ECHSS, read-out: Visual Growth Reduction (%) 14 Days After Application ECHSS
[12] = ORYSS (crop), read-out: Visual Growth Reduction (%) 14 Days After Application ORYSS
[13] = SETFA: giant foxtail (Setaria faberi), read-out: Visual Growth Reduction (%) 14 Days After Application SETFA
[14] = SORVU: grain sorghum (Sorghum vulgare), read-out: Visual Growth Reduction (%) 14 Days After Application SORVU
[15] = TRZSS (crop), read-out: Visual Growth Reduction (%) 14 Days After Application TRZSS
[16] = ZEAMX: maize, corn (Zea mays), read-out: Visual Growth Reduction (%) 14 Days After Application ZEAMX
[17] = CYPSS, read-out: Visual Growth Reduction (%) 14 Days After Application CYPSS

Cc1c(-c2cc(N)c(Cl)c(C(=O)O)n2)ccc(C(F)(F)F)c1F [Compound 61, 4-amino-3-chloro-6-(3-fluoro-2-methyl-4-(trifluoromethyl)phenyl)picolinic acid]
60 to 74%: pest or weed control at 140 g/ha [1, 5] | pest or weed control at 140 g/ha [2, 13]
85 to 94%: pest or weed control at 70 g/ha [1, 3] | pest or weed control at 140 g/ha [1, 3] | pest or weed control at 70 g/ha [1, 6] | pest or weed control at 140 g/ha [1, 6] | pest or weed control at 70 g/ha [1, 8] | pest or weed control at 140 g/ha [1, 8] | pest or weed control at 70 g/ha [2, 11] | pest or weed control at 140 g/ha [2, 11]
95 to 100%: pest or weed control at 70 g/ha [1, 7] | pest or weed control at 140 g/ha [1, 7]
45 to 59%: pest or weed control at 70 g/ha [1, 5] | pest or weed control at 70 g/ha [2, 13]
30 to 44%: pest or weed control at 140 g/ha [2, 15]
0 to 29%: pest or weed control at 70 g/ha [1, 4] | pest or weed control at 140 g/ha [1, 4] | pest or weed control at 70 g/ha [1, 9] | pest or weed control at 140 g/ha [1, 9] | pest or weed control at 70 g/ha [2, 10] | pest or weed control at 140 g/ha [2, 10] | pest or weed control at 70 g/ha [2, 12] | pest or weed control at 140 g/ha [2, 12] | pest or weed control at 70 g/ha [2, 14] | pest or weed control at 140 g/ha [2, 14] | pest or weed control at 70 g/ha [2, 15] | pest or weed control at 70 g/ha [2, 16] | pest or weed control at 140 g/ha [2, 16]

COC(=O)c1nc(-c2ccc(Cl)c(F)c2C)nc(N)c1OC [Compound 63]
85 to 94%: pest or weed control at 70 g/ha [1, 4] | pest or weed control at 140 g/ha [1, 4] | pest or weed control at 70 g/ha [1, 6] | pest or weed control at 140 g/ha [1, 6]
30 to 44%: pest or weed control at 70 g/ha [1, 5]
45 to 59%: pest or weed control at 140 g/ha [1, 5]
0 to 29%: pest or weed control at 70 g/ha [1, 3] | pest or weed control at 140 g/ha [1, 3] | pest or weed control at 70 g/ha [1, 7] | pest or weed control at 140 g/ha [1, 7] | pest or weed control at 70 g/ha [1, 9] | pest or weed control at 140 g/ha [1, 9] | pest or weed control at 70 g/ha [2, 17] | pest or weed control at 140 g/ha [2, 17] | pest or weed control at 70 g/ha [2, 10] | pest or weed control at 140 g/ha [2, 10] | pest or weed control at 70 g/ha [2, 11] | pest or weed control at 140 g/ha [2, 11] | pest or weed control at 70 g/ha [2, 12] | pest or weed control at 140 g/ha [2, 12] | pest or weed control at 70 g/ha [2, 13] | pest or weed control at 140 g/ha [2, 13] | pest or weed control at 70 g/ha [2, 14] | pest or weed control at 140 g/ha [2, 14] | pest or weed control at 70 g/ha [2, 15] | pest or weed control at 140 g/ha [2, 15] | pest or weed control at 70 g/ha [2, 16] | pest or weed control at 140 g/ha [2, 16]
75 to 84%: pest or weed control at 70 g/ha [1, 8] | pest or weed control at 140 g/ha [1, 8]
